From patent US8314234B2, “Bicyclic pyrimidine kinase inhibitors” (Janssen Pharmaceutica N.V., priority 2006, dated 2012)

Experiments:
[1] = system: HeLa cervical adenocarcinoma; experiment: Cell Proliferation Inhibition Assay (14C-thymidine incorporation), HeLa; type: cell-based; details: Homo sapiens
Description: (§1) The ability of a test compound to inhibit unregulated cell proliferation may be determined by measuring incorporation of ^14C-labelled thymidine into newly synthesized DNA within cell lines derived from carcinomas originating from several tissues. Accordingly, the anti-proliferative effect of a compound on cells with a variety of phenotypes may be determined.
(§2) Carcinoma cell lines include those such as HeLa cervical adenocarcinoma (American Type Culture Collection (ATCC), Virginia, Cat. #CCL-2), A375 malignant melanoma (ATCC CRL-1619), SK-OV-3 ovarian adenocarcinoma (ATCC HTB-77), HCT-116 colon carcinoma (CCL-247), PC-3 prostate adenocarcinoma (ATCC CRL-1435), and MDA-MB-231 (Xenogen Corp.)
(§3) The carcinoma cells are trypsinized and counted. The cells (3000-8000 count) are added to each well of a 96-well CytoStar tissue culture treated scintillating microplate (Amersham #RPNQ0160) in complete medium (100 μL) and the plate is then incubated in complete medium for 24 hrs at 37° C. in an inert atmosphere containing 5% CO2. Test compound (1 μL) in 100% DMSO is added to the plate test-wells with DMSO only added to control-wells. The plate is incubated in complete medium for a second 24 hr period at 37° C. in an atmosphere containing 5% CO2.
(§4) An aliquot of a solution of Methyl ^14C-thymidine (56 mC/mmol) (NEN #NEC568 or Amersham #CFA532) and complete medium (20 uL to provide 0.2 μCi/well) is then added to each well and the plate is incubated for a third 24 hr period at 37° C. in an atmosphere containing 5% CO2. The plate contents are then discarded, the plate is washed twice with PBS (200 μL) and then PBS (200 μL) is added to each well. The plate is sealed and the degree of methyl ^14C-thymidine incorporation is quantified on a Packard Top Count.

VEGFR2 = VEGFR2 (Rattus norvegicus, UniProt O08775); experiment: VEGFR2 screening assay; type: biochemical
Chain of VEGFR2 (O08775 786-1343): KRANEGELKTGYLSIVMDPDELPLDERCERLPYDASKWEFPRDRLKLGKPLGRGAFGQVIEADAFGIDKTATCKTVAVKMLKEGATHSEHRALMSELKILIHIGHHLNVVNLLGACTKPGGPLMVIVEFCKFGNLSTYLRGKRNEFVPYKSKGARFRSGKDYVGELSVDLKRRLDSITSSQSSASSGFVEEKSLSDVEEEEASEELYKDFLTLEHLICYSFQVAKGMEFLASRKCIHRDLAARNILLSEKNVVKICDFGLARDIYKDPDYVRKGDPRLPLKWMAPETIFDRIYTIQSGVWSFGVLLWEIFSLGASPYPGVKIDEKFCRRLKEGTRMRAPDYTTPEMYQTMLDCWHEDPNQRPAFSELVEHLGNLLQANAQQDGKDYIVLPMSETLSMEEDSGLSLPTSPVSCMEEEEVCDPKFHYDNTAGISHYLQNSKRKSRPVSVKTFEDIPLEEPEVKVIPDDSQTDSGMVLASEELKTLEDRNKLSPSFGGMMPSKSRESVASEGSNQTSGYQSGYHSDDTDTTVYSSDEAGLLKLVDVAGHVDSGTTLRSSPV
Protocol: A kinase reaction mixture was prepared containing 50 mM Tris-HCl pH=8, 10 mM MgCl2, 0.1 mM […], 1 mM DTT, 10 μM ATP, 0.025 μM biotinylated histone-H1 peptide substrate and 0.2 μCuries per well ^33P-γ-ATP (2000-3000 Ci/mmol). 70 μL of the kinase reaction mixture was dispensed into the well of a streptavidin coated FlashPlate™ (Cat. #SMP103, NEN, Boston, Mass.).
(§5) Test compound stock in 100% DMSO (1 μL) was added to the wells resulting in a final concentration of 1% DMSO in the reaction with a 100 μL final reaction volume. Each enzyme was diluted in 50 mM Tris-HCl pH=8.0, 0.1% BSA and 30 μL was added to each well to initiate the reaction. The reaction was incubated for one hour at 30° C. At the end of the 1 hr incubation, the reaction was terminated by aspirating the mixture from the plate and washing the wells twice with PBS containing 100 mM EDTA. The biotinylated peptide substrate became immobilized on the Flashplate and the incorporation of ^33P-γ-ATP was measured by reading the plate on a scintillation counter. Inhibition of the enzymatic activity was measured by observing a reduced amount of ^33P-γ-ATP incorporated into the immobilized peptide.
The VEGF-R2 enzyme is a fusion protein containing a polyhistidine tag at the N terminus followed by amino acids 786 to 1343 of the rat VEGF-R2 kinase domain (Accession number U93306). The assay used 150 ng of the N-terminal biotinylated peptide biotin-[…]-amide SEQ ID NO: 2) (VEGF-R2) per well.
(§6) A maximum and minimum signal for the assay was determined on each plate. The percent inhibition of a test compound was calculated according to the formula: […]
For a series of test concentrations, the IC50 was derived by graphing percent inhibition against the log of the concentrations tested for a given compound with results shown in Table 2. For those compounds without an IC50, the inhibition values in percent are shown at a test concentration of 2 μM. The term “ND” means “not determined.”

CDK2 = target: T1, CDK2 (Homo sapiens, UniProt P24941); experiment: CDK-2 screening assay; type: biochemical
T1 construct: purchased Upstate Biotech, Lake Placid, N.Y
Protocol: (§7) 70 μL of the kinase reaction mixture was dispensed into the well of a streptavidin coated FlashPlate™ (Cat. #SMP103, NEN, Boston, Mass.).
as §5
The CDK2 enzyme in complex with cyclin A is commercially available (Upstate Biotech, Lake Placid, N.Y.).
as §6
(§8) The term “ND” means “not determined.”

HCT-116 colon carcinoma = experiment: Cell Proliferation Inhibition Assay (14C-thymidine incorporation), HCT-116; type: cell-based; details: Homo sapiens
Description: as §1, §2, §3, §4

CDK1 = target: T2, CDK1 (Homo sapiens, UniProt P06493); experiment: CDK-1 screening assay; type: biochemical
T2 construct: purchased New England Biolabs, Beverly, Mass; 6020; host or cells: insect cells
T2 sequence (P06493 whole entry): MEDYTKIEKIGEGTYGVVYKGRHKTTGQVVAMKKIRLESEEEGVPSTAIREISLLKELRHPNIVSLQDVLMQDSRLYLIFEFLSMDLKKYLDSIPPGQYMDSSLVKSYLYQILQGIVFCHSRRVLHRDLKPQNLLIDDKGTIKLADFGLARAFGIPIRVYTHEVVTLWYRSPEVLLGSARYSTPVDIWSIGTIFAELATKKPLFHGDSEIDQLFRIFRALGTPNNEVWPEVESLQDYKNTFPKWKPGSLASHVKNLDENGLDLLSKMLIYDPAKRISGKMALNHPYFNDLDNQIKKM
T2 sequence (P14635 whole entry partner): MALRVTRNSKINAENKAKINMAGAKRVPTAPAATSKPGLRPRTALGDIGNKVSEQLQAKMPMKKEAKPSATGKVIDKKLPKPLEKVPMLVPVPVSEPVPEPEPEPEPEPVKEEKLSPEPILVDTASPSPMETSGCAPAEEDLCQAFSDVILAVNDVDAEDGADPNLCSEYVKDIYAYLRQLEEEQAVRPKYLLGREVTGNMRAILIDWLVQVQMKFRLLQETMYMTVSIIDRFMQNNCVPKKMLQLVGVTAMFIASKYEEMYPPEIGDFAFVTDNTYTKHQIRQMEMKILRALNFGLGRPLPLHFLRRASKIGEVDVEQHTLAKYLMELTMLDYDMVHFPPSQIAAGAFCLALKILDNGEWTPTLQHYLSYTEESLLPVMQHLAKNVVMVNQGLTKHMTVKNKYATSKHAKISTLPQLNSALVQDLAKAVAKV
Protocol: as §7, §5, §6, §8

A375 malignant melanoma = experiment: Cell Proliferation Inhibition Assay (14C-thymidine incorporation), A375; type: cell-based; details: Homo sapiens, A-375
Description: as §1, §2, §3, §4

EGFR = target: T3, EGFR (Homo sapiens, UniProt P00533); experiment: EGFR Kinase Assay; type: biochemical
T3 construct: intracellular portion of EGFR started at nucleotide 2189 (corresponding to amino acid 667) and ended at the termination codon; made in house; host or cells: Sf9 insect cells (baculovirus)
Description: The EGFR kinase used was a fusion of Glutathione-S-Transferase (GST) and a PCR amplified intracellular portion of EGFR (NM_005228). The intracellular portion of EGFR started at nucleotide 2189 (corresponding to amino acid 667) and ended at the termination codon. The portion was PCR amplified with primers that added the lambda attB sequences to each end, recombined into an entry vector, then into a GST destination vector (as described in Gateway Technologies Manual by Invitrogen Corporation, Carlsbad, Calif.).
The destination vector was recombined in the DH10BAC strain of bacteria to produce a bacmid. The bacmid was transfected into Sf9 cells and the supernatant containing the baculovirus was collected. The GSTEGFR protein was purified using large cultures of Sf9 cells infected with stock virus. After an appropriate period of time, the cells were collected and lysed. The GSTEGFR was then purified from the lysate on Glutathione-Sepharose columns (as described by Amersham Biosciences, Buckinghamshire, United Kingdom).
The EGFR substrate was prepared by biotinylating polyGluTyr (128 mg) (Sigma, St. Louis, Mo.) in a 1×PBS buffer incubated together with a 12-fold molar excess of Sulfo-NHS-LC-Biotin on ice for at least 2 hrs. The free biotin was separated from the biotinylated polyGluTyr on a gel filtration column.
A mixture of a 10× kinase buffer (500 mM Tris at pH 8.0, 100 mM Magnesium Chloride and 1 mM Sodium Vanadate), DTT (1 mM final from 500 mM stock), ATP (5 μM final from 10 mM stock), biotinylated polyGluTyr (10 μg/μL stock), γ-^33P ATP (10 μCi/μL stock) and water was added to each well (90 μL/well) of a Streptavidin Flashplate (Perkin Elmer, Wellesley, Mass.).
Test compound in 100% DMSO (2 μL) was added to the appropriate wells. Diluted GSTEGFR (1:300 dilution in 50 mM Tris at pH 8.0 and 0.1% bovine serum albumin) (10 μL) was added to the wells to initiate the reactions.
The plates were incubated at 30° C. for 1 hr with shaking. The reacted contents were removed and the plates were sequentially washed three times with a 1×PBS stop buffer (300 μL without Magnesium and Calcium) and 100 mM EDTA. After the final wash, the same stop buffer (200 μL) was added to the wells. The plates were then sealed and read on the TopCount scintillation counter.
Test compounds were assayed in triplicate at 16 concentrations at half-log dilutions starting at 200 uM. A maximum and minimum signal for the assay was determined on each plate. The percent inhibition of a test compound was calculated according to the formula
For a series of test concentrations, the IC50 was derived by graphing percent inhibition against the log of the concentrations tested for a given compound. The percent inhibition results are shown in Table 1 at a test concentration of 2 μM. For those compounds with an IC50, the IC50 value is shown in parentheses.

| Compound | IC50 [1] | IC50 (VEGFR2) | IC50 (CDK2) | IC50 (HCT-116 colon carcinoma) | IC50 (CDK1) | IC50 (A375 malignant melanoma) | EGFR Inhibition (%) (EGFR; test concentration of 2 μM) | inhibition at 2 µM (EGFR; test concentration of 2 μM) | IC50 (EGFR; read-out: EGFR IC50 (value in parentheses)) |
| --- | --- | --- | --- | --- | --- | --- | --- | --- | --- |
| c1nc2ccc(Nc3nc(Nc4ccc5ncsc5c4)c4cn[nH]c4n3)cc2s1 [Cpd 16, N^4,N^6-bis-benzothiazol-6-yl-1H-pyrazolo[3,4-d]pyrimidine-4,6-diamine] | 13.3 µM | 0.989 µM | 1 µM | 8.6 µM | 5 µM | 8.2 µM |  |  |  |
| CC(C)C(CO)Nc1nc(Nc2ccc(S(=O)(=O)NCCO)cc2)nc2[nH]ncc12 (centres unmarked) [Cpd 14, N-(2-hydroxy-ethyl)-4-[4-(1-hydroxymethyl-2-methyl-propylamino)-1H-pyrazolo[3,4-d]pyrimidin-6-ylamino]-benzenesulfonamide] | 100 µM | 75 µM | 3.29 µM | 15 µM | 12 µM | 100 µM |  |  |  |
| 4-[6-(1H-indazol-5-ylamino)-1H-pyrazolo[3,4-d]pyrimidin-4-ylamino]-benzenesulfonamide [Cpd 4] |  | 1.15 µM | 0.15 µM |  | 0.527 µM |  | 65% |  |  |
| c1cc(N2CCNCC2)ccc1Nc1nc(OCC2CCCCC2)c2cn[nH]c2n1 [Cpd 24, (4-cyclohexylmethoxy-1H-pyrazolo[3,4-d]pyrimidin-6-yl)-(4-piperazin-1-yl-phenyl)-amine] |  | > 100 µM | > 100 µM |  | > 100 µM |  |  |  |  |
| O=S(=O)(NCCO)c1ccc(Nc2nc(OCC3CCCCC3)c3cn[nH]c3n2)cc1 [Cpd 26, 4-(4-cyclohexylmethoxy-1H-pyrazolo[3,4-d]pyrimidin-6-ylamino)-N-(2-hydroxy-ethyl)-benzenesulfonamide] | 4.6 µM | 2.32 µM |  | 5 µM | 0.268 µM | 8.6 µM |  |  |  |
| c1ccc(Nc2nc(OCC3CCCCC3)c3cn[nH]c3n2)cc1 [Cpd 25, (4-cyclohexylmethoxy-1H-pyrazolo[3,4-d]pyrimidin-6-yl)-phenyl-amine] |  | > 10 µM | > 10 µM |  | > 100 µM |  |  |  |  |
| O=S(=O)(NCCO)c1ccc(Nc2nc(Nc3ccc4[nH]ncc4c3)c3cn[nH]c3n2)cc1 [Cpd 11, N-(2-hydroxy-ethyl)-4-[4-(1H-indazol-5-ylamino)-1H-pyrazolo[3,4-d]pyrimidin-6-ylamino]-benzenesulfonamide] | 100 µM | 1 µM | 0.139 µM | 100 µM | 0.102 µM | 100 µM |  |  |  |
| NS(=O)(=O)c1ccc(Nc2nc(Nc3ccccc3)nc3[nH]ncc23)cc1 [Cpd 6, 4-(6-phenylamino-1H-pyrazolo[3,4-d]pyrimidin-4-ylamino)-benzenesulfonamide] |  | 4.28 µM | 1.11 µM |  | 2.34 µM |  |  | 40% |  |
| NS(=O)(=O)c1cccc(Nc2nc(Nc3cccc(S(N)(=O)=O)c3)c3cn[nH]c3n2)c1 [Cpd 22, N^4,N^6-bis-[3-(amino-sulfonyl)-phenyl]-1H-pyrazolo[3,4-d]pyrimidine-4,6-diamine] | 100 µM | 1 µM |  | 100 µM | 0.475 µM | 100 µM |  | 66.7% | 0.2 µM |
| NS(=O)(=O)c1ccc(Nc2nc(OCC3CCCCC3)c3cn[nH]c3n2)cc1 [Cpd 23, 4-(4-cyclohexylmethoxy-1H-pyrazolo[3,4-d]pyrimidin-6-ylamino)-benzenesulfonamide] | 18.3 µM | > 10 µM |  | 16.6 µM |  | 11 µM |  |  |  |
| O=S(=O)(NCCO)c1ccc(Nc2nc(Nc3ccc4[nH]ncc4c3)c3cnoc3n2)cc1 [Cpd 15, N-(2-hydroxy-ethyl)-4-[4-(1H-indazol-5-ylamino)-isoxazolo[5,4-d]pyrimidin-6-ylamino]-benzenesulfonamide] | 100 µM | 1 µM | 0.18 µM | 15 µM | 1 µM | 100 µM |  |  |  |
| O=S(=O)(NCCN1CCOCC1)c1ccc(Nc2nc(OCC3CCCCC3)c3cn[nH]c3n2)cc1 [Cpd 27, 4-(4-cyclohexylmethoxy-1H-pyrazolo[3,4-d]pyrimidin-6-ylamino)-N-(2-morpholin-4-yl-ethyl)-benzenesulfonamide] | 19.4 µM | 4.47 µM |  | 11.2 µM | 0.83 µM | 7.5 µM |  |  |  |
| NS(=O)(=O)c1ccc(Nc2nc(Nc3ccc(S(N)(=O)=O)cc3)c3cn[nH]c3n2)cc1 [Cpd 1, N^4,N^6-bis-[4-(amino-sulfonyl)-phenyl]-1H-pyrazolo[3,4-d]pyrimidine-4,6-diamine] | 100 µM | 5 µM | 0.021 µM | 4.9 µM | 0.132 µM | 100 µM |  |  |  |
| NS(=O)(=O)c1ccc(Nc2nc(NCc3ccccc3)c3cn[nH]c3n2)cc1 [Cpd 2, 4-(4-benzylamino-1H-pyrazolo[3,4-d]pyrimidin-6-ylamino)-benzenesulfonamide] |  | 20 µM | 1.6 µM |  | 7.16 µM |  |  |  |  |
